The source made the active and inactive calls. The rule behind the calls is not given here.
Columns and labels:
Mus musculus = organism: Mus musculus; experiment: Ex vivo antiplatelet activity in mouse assessed as inhibition of collagen-induced platelet aggregation at equivalent dose of ibuprofen after 1 hr
Rattus norvegicus [1] = experiment: Ex vivo antiplatelet activity in Sprague-Dawley rat assessed as inhibition of collagen-induced platelet aggregation at 10 mg/kg, po after 1 hr; format: functional
Rattus norvegicus [2] = experiment: Ex vivo antiplatelet activity in Sprague-Dawley rat assessed as inhibition of collagen-induced platelet aggregation at 40 mg/kg, po after 1 hr; format: functional
Rattus norvegicus [3] = experiment: Ex vivo antiplatelet activity in Sprague-Dawley rat assessed as inhibition of collagen-induced platelet aggregation at 50 mg/kg, po after 1 hr; format: functional

With CC(C)Cc1ccc(C(C)C(=O)O)c(Cl)n1 (stereo not given) as the compound, how does the inhibition (Mus musculus) read?
Its inhibition is “inactive”.

For CC(C)Cc1ccc(C(C)C(=O)O)cc1 (stereo not given) [IBUPROFEN], which inhibition in vivo at 10 mg/kg (Rattus norvegicus [1]) is on record?
Its inhibition in vivo at 10 mg/kg is 10%.

What about the inhibition in vivo at 40 mg/kg (Rattus norvegicus [2]) of the same compound?
The inhibition in vivo at 40 mg/kg was 88%.

CC(C)Cc1ccc(C(C)C(=O)O)cn1 (stereo not given) was tested. Which inhibition in vivo at 10 mg/kg (Rattus norvegicus [1]) did it give?
The inhibition in vivo at 10 mg/kg was 33%.

What about the inhibition in vivo at 50 mg/kg (Rattus norvegicus [3]) of the same compound?
Its inhibition in vivo at 50 mg/kg is 65%.

Source: ChEMBL document CHEMBL3227973, “Synthesis and platelet aggregation inhibitory activity of 6-isobutyl-alpha-methyl-3-pyridineacetic acid” (1979)
